In patent publication US11433086B2, “Combination of T-cell checkpoint inhibitors with inhibitors of e-selectin or CXCR4, or with heterobifunctional inhibitors of both E-selectin and CXCR4” (GlycoMimetics, Inc., priority 2016, dated 2022):

Assays:
[1] = tested on: T-Cells (CD4+ and CD8+), Tregs, MDSCs and checkpoint markers in tumors and spleens; experiment: Flow cytometry immune profile of tumors and spleens, Day 15; assay type: in vivo, Balb/c mice
Protocol: The anti-cancer activity of an anti-mPD-L1 antibody (10F.9G2) and GMI-1359 was compared to a rat isotype control antibody against indeterminate subcutaneous CT26.WT carcinoma xenografts in female Balb/c mice. An immune profile of each mouse was determined by sampling tumors and spleens, staining for several markers of an active immune response, and detecting the levels of these markers via flow cytometry. Flow cytometry markers included: T-Cells (CD4^+ and CD8^+), Regulatory T-Cells (Tregs). (CD4^+/CD25^+/FoxP3^+), MDSCs (CD11b^+/Gr1^+) and co-expression of CCR7^+ and CD62^+ added to the existing CD4/CD8 panel.
At 24 hours after the final dose of GMI-1359 (Day 15), all mice from Groups 7-12 were euthanized for tumor and spleen collection. All mice were euthanized via over exposure to carbon dioxide. The tumors and spleens were excised and placed in a labeled 5 mL sampling tube filled with cold PBS and placed on ice. The tumors and spleens were provided to the Molecular Imaging's in vitro group for flow cytometric analysis.
For tumor dissociation, the tumor was weighed and <1 g tissue was processed according to Miltenyi Tumor Dissociation Protocol 2.2.1, Dissociation of soft tumors, before proceeding to the red blood cell lysis.
For spleen dissociation, the plunger on a 3 mL syringe was used to crush the spleen in 10 mL DPBS until organ was well broken up and the DPBS became cloudy with cells. The cell suspension was then filtered with a 70 μm strainer on a 50 mL tube and washed with 20 mL DPBS. The suspension was then centrifuged for 7 minutes at 300 rcf and the supernatant was discarded before proceeding the red blood cell lysis.
For the red blood cell lysis, each of the tumor and spleen samples were re-suspended in 3 mL ACK Lysis Buffer and then incubated for 5 minutes at room temperature. The suspension was diluted by adding 10 mL DPBS, and then the cells were collected via centrifugation for 5 minutes at 300 rcf. The cells were again re-suspended in 30 mL DPBS and counted. The suspension was centrifuged again, and the supernatant was discarded before proceeding to the Fc block.
For the Fc block, each of the tumor and spleen samples were re-suspended at 1E+06 cells per 100 μL in Flow Cytometry Staining buffer with 1 μL Fc block per 1E+06 cells. The suspensions were incubated for 5 minutes at room temperature, then centrifuged for 5 minutes at 300 rcf, and the supernatant was removed before proceeding to surface staining.
For the surface staining, the following antibody dilutions were prepared, 50 μL per reaction in Flow Cytometry Staining Buffer (except FoxP3):
For surface staining, the tumor and spleen cells were re-suspended at 1E+06 cells per 50 μL. Each of the 50 μL cell suspensions containing 1E+06 cells was added to 50 μL antibodies diluted in staining buffer in round-bottom 96-well plate. The plate was incubated for 30 minutes in the dark at room temperature on the orbital shaker, setting 2.5. The samples were diluted by adding 200 μL Flow Cytometry Staining Buffer and then centrifuged for 5 minutes at 300 rcf. The supernatant was aspirated and the cells were washed wash by re-suspending in 250 μL Flow Cytometry Staining Buffer and spinning. If staining for intracellular markers, after washing, the sample was then prepared according to the intracellular staining procedure described below. The samples were then re-suspended in 250 μL Flow Cytometry Staining Buffer and were ready for Flow Cytometry Analysis.
When staining for intracellular markers, following the wash step, the cells were re-suspended in 200 μL FoxP3 Fixation/Permeabilization working solution and incubated for 30 minutes in the dark at room temperature. The samples were then centrifuged at 400 rcf for 5 minutes at room temperature, then the supernatant was discarded. 200 μL 1× permeabilization buffer was added to each well. The samples were centrifuged at 400 rcf for 5 minutes at room temperature, then the supernatant was discarded. […]

[2] = Assessment of side effects in CT26.WT tumor-bearing mice (body weight, mortality, necropsy); assay type: in vivo
Protocol: Animals were weighed on each day of treatment. Individual body weights were recorded 3 times weekly. Treatment-related weight loss in excess of 20% was considered unacceptably toxic. In this report, a dosage level is described as tolerated if treatment-related weight loss (during and two weeks after treatment) is <20% and mortality during this period in the absence of potentially lethal tumor burdens is ≤10%. FIG. 6 provides a graph of the percent mean body weight change for the 12 experimental groups.
Upon death or euthanasia, all animals were necropsied to provide a general assessment of potential cause of death and perhaps target organs for toxicity. The presence or absence of metastases was also noted. Remarkable observations of clinical signs and necropsy findings were tabulated as well as individual and group toxicity findings.
This is an individual toxicity parameter.

CCC1CC(C(=O)NCCNCc2ccc(CN3CCCNCCNCCCNCC3)c(Br)c2)CC(OC2OC(CO)C(O)C(O[C@@H](CC3CCCCC3)C(=O)O)C2NC(C)=O)C1OC1OC(C)C(O)C(O)C1O (stereo partly shown) [GMI-1359]
average percentage of CCR7^+/CD62L^+ cells within the CD8^+ T-cell population in spleens ([1]; spleens, Day 15, Groups 8-12): 1.00%
average percentage of CD4^+ T-cells expressing CCR7 but not CD62L in spleens ([1]; spleens, Day 15, Groups 8-12): 33.36%
average percentage of CD4^+ T-cells expressing CD62L but not CCR7 in spleens ([1]; spleens, Day 15, Groups 8-12): 5.42%
average percentage of CD4^+ T-cells expressing both CCR7 and CD62L in spleens ([1]; spleens, Day 15, Groups 8-12): 2.05%
average percentage of CD4^+ cells in spleens ([1]; spleens, Day 15, Groups 8-12): 13.43%
average percentage of CD8^+ T-cells expressing CCR7 but not CD62L in spleens ([1]; spleens, Day 15, Groups 8-12): 27.95%
average percentage of CD8^+ T-cells expressing CD62L but not CCR7 in spleens ([1]; spleens, Day 15, Groups 8-12): 2.94%
average percentage of CD8^+ cells in spleens ([1]; spleens, Day 15, Groups 8-12): 8.77%
average percentage of MDSCs in spleens ([1]; spleens, Day 15, Groups 8-12): 3.70%
average percentage of Tregs in spleens ([1]; spleens, Day 15, Groups 8-12): 10.00%
average percentage of cells expressing CTLA-4 in spleens ([1]; spleens, Day 15, Groups 8-12): 12.31%
average percentage of cells expressing PD-1 in spleens ([1]; spleens, Day 15, Groups 8-12): 5.53%
average percentage of cells expressing PD-L1 in spleens ([1]; spleens, Day 15, Groups 8-12): 81.50%
percentage of CD4^+/CCR7^+/CD62L^+ cells in spleens, change ([1]; spleens, Day 15, compared to vehicle, GMI-1359 or isotype control antibody, respectively): did not
average percentage of (CD4^+) cells expressing CD62L but not CCR7 in tumors ([1]; tumors, Day 15, Groups 8-12): 31.43%
average percentage of CCR7^+/CD62L^+ cells within the CD8^+ T-cell population in tumors ([1]; tumors, Day 15, Groups 8-12): 25.84%
average percentage of CD4^+ T-cells expressing both CCR7 and CD62L in tumors ([1]; tumors, Day 15, Groups 8-12): 25.32%
average percentage of CD8^+ cells in tumors ([1]; tumors, Day 15, Groups 8-12): 15.61%
average percentage of cells expressing CTLA-4 in tumors ([1]; tumors, Day 15, Groups 8-12): 42.80%
average percentage of cells expressing PD-1 in tumors ([1]; tumors, Day 15, Groups 8-12): 23.39%
average percentage of cells expressing PD-L1 in tumors ([1]; tumors, Day 15, Groups 8-12): 34.44%
average percentage of myeloid-derived suppressor cells (MDSCs) in tumors ([1]; tumors, Day 15, Groups 8-12): 2.66%
average percentage of regulatory T-cells (Tregs) in tumors ([1]; tumors, Day 15, Groups 8-12): 2.93%
detection of CD4^+/CCR7^+/CD62L^− and CD8^+/CCR7^+/CD62L^− populations in tumor samples ([1]; tumors, Day 15, Groups 8-12): Neither CD4^+/CCR7^+/CD62L^− nor CD8^+/CCR7^+/CD62L^− populations were detected
percentage of CD8^+ T-cells expressing CD62L but not CCR7 in tumors ([1]; tumors, Day 15, Groups 8-12): 25.65%
average percentage of CD4^+ cells in tumors ([1]; tumors, Day 15, Groups 8-12 (GMI-1359 40 mg/kg IP Days 3-14, antibody 10 mg/kg IP Days 3,6,10,13)): 7.02%
percentage of Treg among tumor infiltrating cells (summary comparison) ([1]; tumors, Day 15, groups 8, 10, 12, saline group 7 3.3%): 2.9%
mean weight gain during the treatment regimen ([2]; Groups 2-6): 16.8%
treatment-related mortality ([2]; Groups 2-6): no treatment-related mortality
weight loss associated with treatment ([2]; Groups 2-6): No weight loss
tolerance of treatment ([2]; Groups 2-6: GMI-1359 40 mg/kg IP QDx20, antibody 10 mg/kg IP Days 3,6,10,13,17): well tolerated
mean weight gain during the treatment regimen ([2]; Groups 8-12): 7.0%
treatment-related mortality ([2]; Groups 8-12): no treatment-related mortality
weight loss associated with treatment ([2]; Groups 8-12): No weight loss
necropsy findings ([2]; Groups 8-12, Day 15): unremarkable
tolerance of treatment ([2]; Groups 8-12: GMI-1359 40 mg/kg IP QDx12, antibody 10 mg/kg IP Days 3,6,10,13): well tolerated
tolerance of treatment, summary ([2]; summary over both regimens / all groups): well tolerated
